Read-outs that look alike come from different tables or passages of the source.
Test system: MRL/lpr lupus erythematosus model mice
Type: in vivo
Parameters: key to Kidney IHC (IgG) pathological score, bilateral kidneys: product score; 0 negative, 1-3 low, 4-8 medium, 9-12 high
Settings: prednisone 6 mg/kg QD
Experimental: • female MRL/lpr mice aged 4 weeks, number: 50; • female C57BL/6 mice aged 4 weeks, number: 10.
According to the concentration of the serum anti-ds-DNA antibody, female MRL/lpr mice were randomly divided into five groups: model group: solvent (aqueous solution containing 0.4% Tween 80 and 0.5% methylcellulose) 10 mL/kg BID, positive control group: prednisone 6 mg/kg QD, compound (I) 20, 40 and 60 mg/kg BID groups, the administration volumes respectively: 10 mL/kg. In addition, female C57BL/6 mice served as the normal control group. The animals in the Compound (I) group and the model group were administrated with the medicament or the solvent by gavage twice a day starting from the beginning of five weeks of age with an interval of 8 hours between two administrations; prednisone was administered to the animals by gavage once a day from the beginning of five weeks of age; the administration was totally performed for 17 weeks.
Two mice in the model group died at 15 and 16 weeks of administration, respectively, and 8 mice remained at the end of the test; one mouse in the compound (I) 20 mg/kg bid group died in the later period of the 16th week of administration, and 9 mice remained at the end of the test; and no death of mice occurred in other groups.
The skin destructions on the face, ears and back of mice were observed and scored once a week for 17 times totally.
Scoring system: 1) red swelling and bleeding of the skin; 2) the extent of hair loss and skin dryness; 3) edema; 4) excoriation/corrosion; 5) lichenoid sclerotic plaque and other symptoms. The score of each item was as follows: normal=0 points; slight=1 point; moderate=2 points; severe=3 points. The severity of skin destruction was determined according to the total score of each evaluated symptom. […]
The lymph nodes of MRL/lpr mice were scored once a week for a total of 17 times during the test.
According to the lymph node diameter (cm), the score values were 0-6 points: • 0 point: normal; • 1 point: small (the diameter at one location of points on both sides was less than 1 cm); • 2 points: small (the diameters at two location of points on both sides were less than 1 cm); • 3 points: small (the diameters at three location of points on both sides were less than 1 cm); • 4 points: large (the diameter at one location of points on both sides was larger than 1 cm, the diameters at the other two location of points on both sides were less than 1 cm); • 5 points: large (the diameters at two location of points on both sides were larger than 1 cm, and the diameter at the other location of points on both sides was less than 1 cm); • 6 points: large (the diameters at three location of points on both sides were greater than 1 cm). […]
Kidney HE scoring criteria: […]
During the test, the concentration of serum anti-ds-DNA antibody of mice were detected every 4 weeks for 16 weeks.
At the end of the test, the serum cytokine levels of mice were detected by ELISA. […] See Table 25 and FIG. 17 for details.

## C[C@]12C=CC(=O)C=C1CC[C@@H]1[C@@H]2C(=O)C[C@@]2(C)[C@H]1CC[C@]2(O)C(=O)CO [prednisone, reference compound]
16 weeks
  Area under the urine protein curve: 2360.38 ± 161.30 wk*mg/L
After 17 weeks of treatment
  Kidney HE pathological score of both kidneys, Activity index: 1.80 ± 0.36
  Kidney HE pathological score of both kidneys, Chronicity index: 4.90 ± 0.62
  Kidney HE pathological score of both kidneys, Tubulointerstitial lesions: 3.60 ± 0.45
  Kidney IHC (IgG) pathological score, bilateral kidneys: 7.90 ± 0.77
  Skin HE pathological score: 1.80 ± 0.36
  Total kidney weight: 0.3526 ± 0.01 g
  Total kidney weight/body weight %: 1.1050 ± 0.04%
End of the test
  IL-6 concentration in serum (ELISA): 19.91 ± 10.43 pg/mL
  Spleen weight: 0.0756 ± 0.01 g
  Spleen weight/body weight %: 0.2362 ± 0.03 %
  TNF-alpha concentration in serum (ELISA): 5.50 ± 1.13 pg/mL
  Total lymph node weight: 0.1123 ± 0.03 g
  Total lymph node weight/body weight %: 0.3445 ± 0.08 %
Week 0
  Concentration of serum anti-ds-DNA antibody: 3.26 ± 0.30 µg/mL
  Lymph node score: 0.0 ± 0.00
  Skin score (skin destruction): 0.0 ± 0.00
Week 4
  Concentration of serum anti-ds-DNA antibody: 183.55 ± 28.07 µg/mL
  Skin score (skin destruction): 0.0 ± 0.00
Week 6
  Lymph node score: 0.0 ± 0.00
Week 7
  Lymph node score: 0.2 ± 0.13
Week 8
  Concentration of serum anti-ds-DNA antibody: 363.75 ± 18.45 µg/mL
  Skin score (skin destruction): 0.3 ± 0.15
Week 9
  Lymph node score: 0.3 ± 0.15
Week 11
  Lymph node score: 0.0 ± 0.00
Week 12
  Concentration of serum anti-ds-DNA antibody: 619.78 ± 25.47 µg/mL
  Lymph node score: 0.0 ± 0.00
  Skin score (skin destruction): 0.3 ± 0.15
Week 14
  Skin score (skin destruction): 0.2 ± 0.13
Week 16
  Concentration of serum anti-ds-DNA antibody: 606.66 ± 26.65 µg/mL
  Skin score (skin destruction): 0.1 ± 0.10
Week 17
  Lymph node score: 0.0 ± 0.00
  Skin score (skin destruction): 0.1 ± 0.10
